This is an account of results in publication PMC6792352, “Limited Chemical Structural Diversity Found to Modulate Thyroid Hormone Receptor in the Tox21 Chemical Library” (Environmental Health Perspectives, 2019).

This data set can be described thus: in vitro. As to conditions: rat, gh3-tre-luc cells.

Structures can show the parent of a compound that is named as a salt. Non-standard residues stand in square brackets, D forms with d. Residues, ends and D or L forms follow the SMILES beside them. Orn = NCCC[C@H](N)C(=O)O

The term CC50 denotes the concentration at which the toxic effect on the cells reaches its halfway point. High values mean better tolerance by the cells, low ones harm at low concentration. Under “AC50 (uM) modified / 1000”, `CCOc1ccc(NC(=O)CC(C)O)cc1` (stereo not drawn) [3-Hydroxy-4-butyrophenetidide] showed a CC50 at 24 h of more than 90 µM.

Turning to `O=c1[nH]c(=O)n([C@H]2C[C@H](O)[C@@H](CO)O2)cc1C(F)(F)F` [Trifluridine], the 50% cytotoxic concentration (CC50) at 24 h (AC50 (uM) modified / 1000) was more than 50 µM.

In turn, `CC[N+](C)(CC)CCOC(=O)C(O)(c1ccccc1)c1ccccc1` [Benzactyzine methobromide] displayed a CC50 at 24 h (AC50 (uM) modified / 1000) of more than 50 µM.

Under “AC50 (uM) modified / 1000, Tox21_110001=Tox21_301642, viability, 1 nM T3 present, 24 h”, `CC(C=O)Cc1ccc2c(c1)OCO2` (stereo not drawn) registered a CC50 at 24 h of more than 90 µM.

Under “AC50 (uM) modified / 1000”, `O=C(Nc1ncc([N+](=O)[O-])s1)c1cccs1` [Tenonitrozole] yielded a cytotoxic concentration (CC50) at 24 h of 30.4 µM.

For the setting “AC50 (uM) modified / 1000, Tox21_110001=Tox21_201525, viability, 1 nM T3 present, 24 h”, `CSSC` [Methyl disulfide] returned a CC50 at 24 h of more than 90 µM.

With `CCN(N=O)C(N)=O` [1-Ethyl-1-nitrosourea], the 50% cytotoxic concentration (CC50) at 24 h is, setting by setting: (AC50 (uM) modified / 1000, Tox21_110001=Tox21_202151, viability, 1 nM T3 present, 24 h) more than 90 µM; (AC50 (uM) modified / 1000, Tox21_110001=Tox21_302749, viability, 1 nM T3 present, 24 h) more than 60 µM.

In the case of `CC(C)(C)c1cccc(C(C)(C)C)c1O` [2,6-Di-tert-butylphenol], the CC50 at 24 h (AC50 (uM) modified / 1000) was more than 90 µM.

Turning to `c1ccc2c(c1)ccc1cc3c(ccc4ccccc43)cc12` [Dibenz(a,h)anthracene], under “AC50 (uM) modified / 1000”, the 50% cytotoxic concentration (CC50) at 24 h was more than 50 µM.

Compound `Cn1c(N)nc2c3cccnc3ccc21` [2-Amino-3-methyl-3H-imidazo[4,5-f]quinoline] registered a half-maximal cytotoxic concentration (CC50) at 24 h (AC50 (uM) modified / 1000, Tox21_110001=Tox21_200693, viability, 1 nM T3 present, 24 h) of 36.1 µM.

As for `CC(C)CCC[C@@H](C)[C@H]1CC(=O)C2=C3CC[C@H]4C[C@@H](O)CC[C@]4(C)[C@H]3CC[C@@]21C` [Colestolone], where the note is “AC50 (uM) modified / 1000”, the half-maximal cytotoxic concentration (CC50) at 24 h was more than 50 µM.

In turn, `CC(C)C[C@@H]1NC(=O)[C@H](CCCN)NC(=O)[C@H](C(C)C)NC(=O)[C@@H]2CCCN2C(=O)[C@@H](Cc2ccccc2)NC(=O)[C@H](CC(C)C)NC(=O)[C@H](CCCN)NC(=O)[C@H](C(C)C)NC(=O)[C@@H]2CCCN2C(=O)[C@@H](Cc2ccccc2)NC1=O` [Gramicidin S] (cyclo(L[dF]PV[Orn]L[dF]PV[Orn])) gave a CC50 at 24 h (AC50 (uM) modified / 1000) of 3.05 µM.

With `C=C(C)C(=O)OCCCCCCCCCCCCCCCCCC` [Stearyl methacrylate], where the note is “AC50 (uM) modified / 1000”, the CC50 at 24 h is more than 20 µM.

For `CNC=Nc1ccc(C)cc1C` [N'-(2,4-Dimethylphenyl)-N-methylformamidine], the cytotoxic concentration (CC50) at 24 h (AC50 (uM) modified / 1000, Tox21_110001=Tox21_301746, viability, 1 nM T3 present, 24 h) was more than 90 µM.

The compound `C=CCOC(=O)c1ccccc1N` [Allyl anthranilate] registered a CC50 at 24 h (AC50 (uM) modified / 1000, Tox21_110001=Tox21_201129, viability, 1 nM T3 present, 24 h) of more than 90 µM.

Compound `CCOCN(C(=O)CCl)c1c(C)cccc1CC` [Acetochlor] had a cytotoxic concentration (CC50) at 24 h (AC50 (uM) modified / 1000) of more than 90 µM.

Compound `CC(C)CCCO` [4-Methylpentan-1-ol] yielded a cytotoxic concentration (CC50) at 24 h (AC50 (uM) modified / 1000) of more than 90 µM.

In turn, `CCc1ccc(C(=O)C(C)CN2CCCCC2)cc1` (stereo not drawn) [Eperisone hydrochloride] yielded a cytotoxic concentration (CC50) at 24 h (AC50 (uM) modified / 1000) of more than 50 µM.

For the setting “AC50 (uM) modified / 1000”, `C=C[C@@]1(C)CC(=O)[C@]2(O)[C@@]3(C)[C@@H](O)CCC(C)(C)[C@@H]3[C@H](O)[C@H](OC(C)=O)[C@@]2(C)O1` [Forskolin] had a cytotoxic concentration (CC50) at 24 h of more than 90 µM.

`CC(C)NCC(O)c1ccc([N+](=O)[O-])cc1` (stereo not drawn) [Nifenalol] registered a CC50 at 24 h (AC50 (uM) modified / 1000) of more than 50 µM.

`NCCN1CCNC1=O` [1-(2-Aminoethyl)imidazolidin-2-one]: under “AC50 (uM) modified / 1000”, the CC50 at 24 h was more than 90 µM.

Take `CC1(C)[C@H](C(=O)O[C@H](C#N)c2cccc(Oc3ccccc3)c2)[C@@H]1C=C(Cl)Cl` [alpha-Cypermethrin]: where the note is “AC50 (uM) modified / 1000”, the CC50 at 24 h was more than 90 µM.

As to `CCCCc1ccc2ccccc2c1S(=O)(=O)O` [Butylnaphthalenesulfonic acid sodium salt], where the note is “AC50 (uM) modified / 1000”, the cytotoxic concentration (CC50) at 24 h was more than 90 µM.

`C1CCCCCCCCCCC1` [Cyclododecane]: the cytotoxic concentration (CC50) at 24 h (AC50 (uM) modified / 1000) is more than 20 µM.

Compound `CCCOc1cc(N)ccc1C(=O)OCCN(CC)CC` [Propoxycaine hydrochloride] returned a cytotoxic concentration (CC50) at 24 h (AC50 (uM) modified / 1000) of more than 20 µM.

For the setting “AC50 (uM) modified / 1000”, `CC(=O)N1C[C@H](O)C[C@H]1C(=O)O` [Oxaceprol] displayed a CC50 at 24 h of more than 50 µM.

On to `CNCCS(=O)(=O)O` [Sodium 2-(methylamino)ethanesulfonate], for which the cytotoxic concentration (CC50) at 24 h (AC50 (uM) modified / 1000) was more than 90 µM.

`Cc1onc(-c2ccccc2)c1-c1ccc(S(N)(=O)=O)cc1` [Valdecoxib] registered a CC50 at 24 h (AC50 (uM) modified / 1000) of more than 50 µM.

With `CC(=O)c1ccccn1` [2-Acetylpyridine], the half-maximal cytotoxic concentration (CC50) at 24 h (AC50 (uM) modified / 1000) is more than 90 µM.

`Cc1occc1C(=O)Nc1ccc(C(=O)N2CCC(F)(F)/C(=C\C(=O)N3CCC(N4CCCCC4)CC3)c3ccccc32)cc1` [YM218] had a CC50 at 24 h (AC50 (uM) modified / 1000) of 11.8 µM.

For the compound `O=C1OC2(c3ccc(O)cc3Oc3cc(O)ccc32)c2ccccc21` [Fluorescein], the CC50 at 24 h (AC50 (uM) modified / 1000) was more than 50 µM.

Turning to `COC(=O)CC(C)CCC=C(C)C` (stereo not drawn) [Methyl citronellate], the CC50 at 24 h (AC50 (uM) modified / 1000) is more than 90 µM.

As to `CCCCCCCCCCCCCCCCCC(=O)OCCO` [2-Hydroxyethyl octadecanoate], the CC50 at 24 h (AC50 (uM) modified / 1000) was more than 50 µM.

In turn, `NC(=O)Nc1nc2ccccc2[nH]1` [2-Benzimidazolylurea] registered a cytotoxic concentration (CC50) at 24 h (AC50 (uM) modified / 1000) of more than 90 µM.

`CCCCCCCCC(=O)NCc1ccc(O)c(OC)c1` [Nonivamide] registered a CC50 at 24 h (AC50 (uM) modified / 1000) of more than 90 µM.

The compound `CC(=O)CC(C)(C)O` [Diacetone alcohol] had a CC50 at 24 h (AC50 (uM) modified / 1000) of more than 90 µM.

The compound `COc1ccccc1OCC1CNC(=O)O1` (stereo not drawn) [Mephenoxalone] returned a cytotoxic concentration (CC50) at 24 h (AC50 (uM) modified / 1000) of more than 50 µM.

Under “AC50 (uM) modified / 1000”, `Nc1c2c(nc3ccccc13)CCCC2` [1,2,3,4-Tetrahydro-9-acridinamine hydrochloride] gave a CC50 at 24 h of more than 90 µM.

`Cc1ccc(C)c(OCCCC(C)(C)C(=O)O)c1` [Gemfibrozil]: where the note is “AC50 (uM) modified / 1000”, the CC50 at 24 h is more than 90 µM.

Turning to `CC(C)OC(=O)c1ccccc1` [Propan-2-yl benzoate], the CC50 at 24 h (AC50 (uM) modified / 1000) was more than 100 µM.

In the case of `CCCCCCCC/C=C\CCCCCCCCN` [(Z)-9-Octadecenylamine], for the setting “AC50 (uM) modified / 1000”, the CC50 at 24 h was more than 50 µM.

With `CC(C)c1cccc(C(C)C)c1NC(=O)NS(=O)(=O)c1cc(C(C)(C)O)co1` [CP-465394], the CC50 at 24 h (AC50 (uM) modified / 1000) is more than 90 µM.

Regarding `CCC(C)(O)CCCC(C)C` (stereo not drawn) [3,7-Dimethyl-3-octanol], for the setting “AC50 (uM) modified / 1000”, the cytotoxic concentration (CC50) at 24 h was more than 90 µM.

`COc1ccc([C@@H]2Sc3ccccc3N(CCN(C)C)C(=O)[C@@H]2OC(C)=O)cc1` [(+)-Diltiazem] displayed a 50% cytotoxic concentration (CC50) at 24 h (AC50 (uM) modified / 1000) of 22.9 µM.

For `CN1CSC(=S)N(C)C1` [Dazomet], the half-maximal cytotoxic concentration (CC50) at 24 h is 5.54 µM (AC50 (uM) modified / 1000, Tox21_110001=Tox21_201236, viability, 1 nM T3 present, 24 h) and 34.4 µM (AC50 (uM) modified / 1000, Tox21_110001=Tox21_300990, viability, 1 nM T3 present, 24 h).

Compound `C=CC[N+]1([C@H]2C[C@H]3[C@@H]4CC[C@H]5C[C@H](O)[C@@H](N6CCOCC6)C[C@]5(C)[C@H]4CC[C@]3(C)[C@H]2OC(C)=O)CCCC1` [Rocuronium bromide] registered a CC50 at 24 h (AC50 (uM) modified / 1000) of more than 50 µM.

On to `CC(C)(C)NC[C@H](O)COc1ccccc1C1CCCC1` [Penbutolol sulfate], for which the half-maximal cytotoxic concentration (CC50) at 24 h (AC50 (uM) modified / 1000) is 11.1 µM.

`COC(C)CCO` (stereo not drawn) [3-Methoxybutan-1-ol] came in with a 50% cytotoxic concentration (CC50) at 24 h (AC50 (uM) modified / 1000) of more than 90 µM.

`CCC1COC(Cn2cncn2)(c2ccc(Cl)cc2Cl)O1` (stereo not drawn) [Etaconazole]: the half-maximal cytotoxic concentration (CC50) at 24 h (AC50 (uM) modified / 1000, Tox21_110001=Tox21_301568, viability, 1 nM T3 present, 24 h) was more than 90 µM.

Consider `COc1cc2nc(O)nc(O)c2cc1OC` [6,7-Dimethoxyquinazoline-2,4(1H,3H)-dione], for which the CC50 at 24 h (AC50 (uM) modified / 1000) is more than 20 µM.

As to `CNCCCN1c2ccccc2CCc2ccccc21` [Desipramine hydrochloride], under “AC50 (uM) modified / 1000”, half-maximal cytotoxicity (CC50 at 24 h) was put at 7.08 µM.

As to `CN1CCC(N(Cc2cccs2)c2ccccc2)CC1` [Thenalidine], the 50% cytotoxic concentration (CC50) at 24 h (AC50 (uM) modified / 1000) amounted to 27 µM.

Take `CCCC(=O)C(C)=O` [2,3-Hexanedione]: the CC50 at 24 h (AC50 (uM) modified / 1000) is more than 90 µM.

For the setting “AC50 (uM) modified / 1000”, `CCCCCC(CO)CCC` (stereo not drawn) [2-Propyl-1-heptanol] yielded a 50% cytotoxic concentration (CC50) at 24 h of more than 90 µM.

Under “AC50 (uM) modified / 1000”, `CCCCOCCOC(=O)COc1ccc(Cl)cc1Cl` [2,4-D-Butotyl] yielded a CC50 at 24 h of more than 90 µM.

`O=C(O)CCCO` [Sodium 4-hydroxybutanoate] registered a CC50 at 24 h (AC50 (uM) modified / 1000, Tox21_110001=Tox21_112871, viability, 1 nM T3 present, 24 h) of more than 100 µM.

Take `N#C/C(N)=C(/N)C#N` [Diaminomaleonitrile]: the half-maximal cytotoxic concentration (CC50) at 24 h (AC50 (uM) modified / 1000, Tox21_110001=Tox21_200991, viability, 1 nM T3 present, 24 h) was more than 90 µM.

For `OC[C@@H](O)C(O)[C@H](O)CO` [D-Arabinitol], the cytotoxic concentration (CC50) at 24 h (AC50 (uM) modified / 1000) was more than 50 µM.
